By EC50 is commonly meant the concentration giving half of the maximal effect.
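Further: agonist activity in CHO cells stably expressing hOX2R, intracellular Ca2+ via Calcium 5 dye fluorescence area over 2 min, buffer-only as 0% and 10 nM orexin A as 100%.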

The target of the assay is T1, human orexin type 2 receptor (hOX2R) (Homo sapiens, UniProt O43614).
T1 sequence (O43614 1-444): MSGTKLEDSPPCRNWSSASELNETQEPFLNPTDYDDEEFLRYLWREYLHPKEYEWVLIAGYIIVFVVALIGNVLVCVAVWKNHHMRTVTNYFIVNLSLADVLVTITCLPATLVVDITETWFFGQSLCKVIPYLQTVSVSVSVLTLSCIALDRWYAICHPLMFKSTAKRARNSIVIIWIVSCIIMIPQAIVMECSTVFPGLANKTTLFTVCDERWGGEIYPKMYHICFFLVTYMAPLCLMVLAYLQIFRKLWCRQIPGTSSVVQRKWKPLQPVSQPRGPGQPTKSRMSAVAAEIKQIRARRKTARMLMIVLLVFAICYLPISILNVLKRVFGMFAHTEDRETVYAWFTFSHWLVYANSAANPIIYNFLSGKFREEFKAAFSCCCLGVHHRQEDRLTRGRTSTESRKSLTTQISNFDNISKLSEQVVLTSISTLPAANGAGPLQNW
The assay can be described thus: cell-based.
Method: Measurement of orexin type 2 receptor agonist activity. […] After removal of the medium, 50 μl of assay buffer 1 (0.1% bovine serum albumin (Sigma Aldrich), 20 mM HEPES (Molecular Dimensions), 250 mM probenecid (Sigma Aldrich), 1× Calcium 5 dye (Molecular Devices) in Hank's balanced salt solution (Invitrogen)) was added, and the cells were incubated for 60 min under the conditions of 37° C., 5% CO2. A test compound was dissolved in dimethyl sulfoxide (Sigma Aldrich) to 10 mM, and then diluted with assay buffer 2 (20 mM HEPES, Hank's balanced salt solution, 0.1% bovine serum albumin). For the reaction, a test compound solution (10 μl) was added using Fluorescent Imaging Plate Reader TETRA (FLIPR TETRA: manufactured by Molecular Devices), a fluorescence value (excitation wavelength 488 nm, measurement wavelength 570 nm) of each well was measured every one second for 2 min, and the agonist activity was determined using the area of the fluorescence value as an indicator of intracellular Ca^2+ concentration. The agonist activity of the test compound was calculated assuming that the fluorescence value of the well added with only the dilution buffer was 0% and the fluorescence value of the well added with 10 nM human orexin A (Tocris) buffer was 100%.
`O=C(C(O)CF)N1CC2(CC2)[C@H](NS(=O)(=O)C(F)F)[C@@H]1Cc1cccc(-c2cccc(F)c2)c1F` (mixture of isomers) [compound 29, N-((6S,7S)-6-((2,3′-difluoro-[1,1′-biphenyl]-3-yl)methyl)-5-((RS)-3-fluoro-2-hydroxypropanoyl)-5-azaspiro[2.4]heptan-7-yl)-1,1-difluoromethanesulfonamide] yielded an EC50 of 0.0631 to 1 nM.

In turn, `C[C@@H](F)S(=O)(=O)N[C@@H]1[C@H](Cc2cccc(-c3cc(F)cc(F)c3)c2F)N(C(=O)C2CCO2)CC12CC2` (mixture of isomers) [compound 43, (S)-1-fluoro-N-((6S,7S)-5-((RS)-oxetane-2-carbonyl)-6-((2,3′,5′-trifluoro-[1,1′-biphenyl]-3-yl)methyl)-5-azaspiro[2.4]heptan-7-yl)ethane-1-sulfonamide] registered a half-maximal effective concentration (EC50) of 1 to 10 nM.

`C[C@@](O)(CF)C(=O)N1CC2(CC2)[C@H](NS(=O)(=O)C(F)F)[C@@H]1Cc1cccc(-c2cc(F)cc(F)c2)c1F` [compound 1, 1,1-difluoro-N-((6S,7S)-5-((S)-3-fluoro-2-hydroxy-2-methylpropanoyl)-6-((2,3′,5′-trifluoro-[1,1′-biphenyl]-3-yl)methyl)-5-azaspiro[2.4]heptan-7-yl)methanesulfonamide] came in with an EC50 of 1 to 10 nM.

Compound `C[C@@](O)(C(=O)N1CC2(CC2)[C@H](NS(=O)(=O)CF)[C@@H]1Cc1cccc(-c2ccccc2)c1F)C1CC1` [compound 2, N-((6S,7S)-5-((S)-2-cyclopropyl-2-hydroxypropanoyl)-6-((2-fluoro-[1,1′-biphenyl]-3-yl)methyl)-5-azaspiro[2.4]heptan-7-yl)-1-fluoromethanesulfonamide] registered an EC50 of 10 to 100 nM.

Consider `O=C([C@@H](O)C1CC1)N1CC2(CC2)[C@H](NS(=O)(=O)CF)[C@@H]1Cc1cccc(-c2cc(F)cc(F)c2)c1F` [compound 3, N-((6S,7S)-5-((S)-2-cyclopropyl-2-hydroxyacetyl)-6-((2,3′,5′-trifluoro-[1,1′-biphenyl]-3-yl)methyl)-5-azaspiro[2.4]heptan-7-yl)-1-fluoromethanesulfonamide], for which the EC50 fell in the range of 10 to 100 nM.

Take `C[C@@H](NC(=O)N1CC2(CC2)[C@H](NS(=O)(=O)CF)[C@@H]1Cc1cccc(-c2cc(F)cc(F)c2)c1F)C(F)F` [compound 4, (6S,7S)-N-((R)-1,1-difluoropropan-2-yl)-7-((fluoromethyl)sulfonamido)-6-((2,3′,5′-trifluoro-[1,1′-biphenyl]-3-yl)methyl)-5-azaspiro[2.4]heptane-5-carboxamide]: the EC50 was 1 to 10 nM.

As to `N#CC1(C(=O)N2CC3(CC3)[C@H](NS(=O)(=O)CF)[C@@H]2Cc2cccc(-c3ccccc3)c2F)CC1` [compound 5, N-((6S,7S)-5-(1-cyanocyclopropane-1-carbonyl)-6-((2-fluoro-[1,1′-biphenyl]-3-yl)methyl)-5-azaspiro[2.4]heptan-7-yl)-1-fluoromethanesulfonamide], the EC50 fell in the range of 0.0631 to 1 nM.

`C[C@](O)(C(=O)N1CC2(CC2)[C@H](NS(=O)(=O)CF)[C@@H]1Cc1cccc(-c2cccc(F)c2)c1F)C(F)F` [compound 6, N-((6S,7S)-5-((S)-3,3-difluoro-2-hydroxy-2-methylpropanoyl)-6-((2,3′-difluoro-[1,1′-biphenyl]-3-yl)methyl)-5-azaspiro[2.4]heptan-7-yl)-1-fluoromethanesulfonamide]: the concentration for a half-maximal effect (EC50) was in the range of 0.0631 to 1 nM.

The compound `O=C([C@H](O)CF)N1CC2(CC2)[C@H](NS(=O)(=O)C(F)F)[C@@H]1Cc1cccc(-c2cc(F)cc(F)c2)c1F` [compound 8, 1,1-difluoro-N-((6S,7S)-5-((S)-3-fluoro-2-hydroxypropanoyl)-6-((2,3′,5′-trifluoro-[1,1′-biphenyl]-3-yl)methyl)-5-azaspiro[2.4]heptan-7-yl)methanesulfonamide] returned a 50% effective concentration (EC50) of 1 to 10 nM.

Compound `O=C([C@H]1CCO1)N1CC2(CC2)[C@H](NS(=O)(=O)C2(F)CC2)[C@@H]1Cc1cccc(-c2ccccc2)c1F` [compound 10, 1-fluoro-N-((6S,7S)-6-((2-fluoro-[1,1′-biphenyl]-3-yl)methyl)-5-((R)-oxetane-2-carbonyl)-5-azaspiro[2.4]heptan-7-yl)cyclopropane-1-sulfonamide] gave an EC50 of 0.0631 to 1 nM.

In turn, `N#CC1(C(=O)N2CC3(CC3)[C@H](NS(=O)(=O)CF)[C@@H]2Cc2cc(F)cc(-c3ccccc3)c2F)CCC1` [compound 13, N-((6S,7S)-5-(1-cyanocyclobutane-1-carbonyl)-6-((2,5-difluoro-[1,1′-biphenyl]-3-yl)methyl)-5-azaspiro[2.4]heptan-7-yl)-1-fluoromethanesulfonamide] gave an EC50 of 0.0631 to 1 nM.

Turning to `O=C(NCC(F)F)N1CC2(CC2)[C@H](NS(=O)(=O)CF)[C@@H]1Cc1cccc(-c2cc(F)cc(F)c2)c1F` [compound 15, (6S,7S)-N-(2,2-difluoroethyl)-7-((fluoromethyl)sulfonamido)-6-((2,3′,5′-trifluoro-[1,1′-biphenyl]-3-yl)methyl)-5-azaspiro[2.4]heptane-5-carboxamide], the EC50 is 1 to 10 nM.

As for `CC(C)S(=O)(=O)N[C@@H]1[C@H](Cc2cc(F)cc(-c3cc(F)cc(F)c3)c2F)N(C(=O)[C@H]2CCO2)CC12CC2` [compound 20, N-((6S,7S)-5-((R)-oxetane-2-carbonyl)-6-((2,3′,5,5′-tetrafluoro-[1,1′-biphenyl]-3-yl)methyl)-5-azaspiro[2.4]heptan-7-yl)propane-2-sulfonamide], the EC50 was in the range of 0.0631 to 1 nM.

Take `C[C@@H](F)C(=O)N1CC2(CC2)[C@H](NS(=O)(=O)CF)[C@@H]1Cc1cc(F)cc(-c2cccc(F)c2)c1F` [compound 21, 1-fluoro-N-((6S,7S)-5-((R)-2-fluoropropanoyl)-6-((2,3′,5-trifluoro-[1,1′-biphenyl]-3-yl)methyl)-5-azaspiro[2.4]heptan-7-yl)methanesulfonamide]: the EC50 lay in the range of 0.0631 to 1 nM.

`O=C([C@H](O)CF)N1CC2(CC2)[C@H](NS(=O)(=O)CF)[C@@H]1Cc1cccc(-c2cc(F)cc(F)c2)c1F` [compound 23, 1-fluoro-N-((6S,7S)-5-((S)-3-fluoro-2-hydroxypropanoyl)-6-((2,3′,5′-trifluoro-[1,1′-biphenyl]-3-yl)methyl)-5-azaspiro[2.4]heptan-7-yl)methanesulfonamide] registered an EC50 of 1 to 10 nM.

Consider `O=C(NCC(F)F)N1CC2(CC2)[C@H](NS(=O)(=O)C(F)F)[C@@H]1Cc1cc(F)cc(-c2cc(F)cc(F)c2)c1F` [compound 25, (6S,7S)-N-(2,2-difluoroethyl)-7-((difluoromethyl)sulfonamido)-6-((2,3′,5,5′-tetrafluoro-[1,1′-biphenyl]-3-yl)methyl)-5-azaspiro[2.4]heptane-5-carboxamide], for which the EC50 fell in the range of 0.0631 to 1 nM.

Turning to `COCC1(C(=O)N2CC3(CC3)[C@H](NS(C)(=O)=O)[C@@H]2Cc2cccc(-c3ccccc3)c2F)CC1` [compound 26, N-((6S,7S)-6-((2-fluoro-[1,1′-biphenyl]-3-yl)methyl)-5-(1-(methoxymethyl)cyclopropane-1-carbonyl)-5-azaspiro[2.4]heptan-7-yl)methanesulfonamide], the EC50 is 0.0631 to 1 nM.

Compound `O=C([C@@H](O)C1CC1)N1CC2(CC2)[C@H](NS(=O)(=O)C(F)F)[C@@H]1Cc1cc(F)cc(-c2ccccc2)c1F` [compound 27, N-((6S,7S)-5-((S)-2-cyclopropyl-2-hydroxyacetyl)-6-((2,5-difluoro-[1,1′-biphenyl]-3-yl)methyl)-5-azaspiro[2.4]heptan-7-yl)-1,1-difluoromethanesulfonamide] yielded a 50% effective concentration (EC50) of 0.0631 to 1 nM.

Regarding `O=C(NCC(F)F)N1CC2(CC2)[C@H](NS(=O)(=O)C(F)F)[C@@H]1Cc1cccc(-c2cc(F)cc(F)c2)c1F` [compound 28, (6S,7S)-N-(2,2-difluoroethyl)-7-((difluoromethyl)sulfonamido)-6-((2,3′,5′-trifluoro-[1,1′-biphenyl]-3-yl)methyl)-5-azaspiro[2.4]heptane-5-carboxamide], the EC50 lay within 0.0631 to 1 nM.

`CC[C@@](C)(O)C(=O)N1CC2(CC2)[C@H](NS(=O)(=O)CF)[C@@H]1Cc1cccc(-c2cccc(F)c2)c1F` [compound 30, N-((6S,7S)-6-((2,3′-difluoro-[1,1′-biphenyl]-3-yl)methyl)-5-((R)-2-hydroxy-2-methylbutanoyl)-5-azaspiro[2.4]heptan-7-yl)-1-fluoromethanesulfonamide] displayed an EC50 of 0.0631 to 1 nM.

In the case of `C[C@@H](F)C(=O)N1CC2(CC2)[C@H](NS(=O)(=O)C(F)F)[C@@H]1Cc1cccc(-c2cc(F)cc(F)c2)c1F` [compound 31, 1,1-difluoro-N-((6S,7S)-5-((R)-2-fluoropropanoyl)-6-((2,3′,5′-trifluoro-[1,1′-biphenyl]-3-yl)methyl)-5-azaspiro[2.4]heptan-7-yl)methanesulfonamide], the EC50 lay within 1 to 10 nM.

Consider `O=C([C@@H](O)C1CC1)N1CC2(CC2)[C@H](NS(=O)(=O)C(F)F)[C@@H]1Cc1cccc(-c2cc(F)cc(F)c2)c1F` [compound 32, N-((6S,7S)-5-((S)-2-cyclopropyl-2-hydroxyacetyl)-6-((2,3′,5′-trifluoro-[1,1′-biphenyl]-3-yl)methyl)-5-azaspiro[2.4]heptan-7-yl)-1,1-difluoromethanesulfonamide], for which the concentration for a half-maximal effect (EC50) was 1 to 10 nM.

The compound `CC[C@](C)(O)C(=O)N1CC2(CC2)[C@H](NS(=O)(=O)CF)[C@@H]1Cc1cccc(-c2cccc(F)c2)c1F` [compound 33, N-((6S,7S)-6-((2,3′-difluoro-[1,1′-biphenyl]-3-yl)methyl)-5-((S)-2-hydroxy-2-methylbutanoyl)-5-azaspiro[2.4]heptan-7-yl)-1-fluoromethanesulfonamide] came in with an EC50 of 0.0631 to 1 nM.
